Reference: US10125098B2, “Therapeutic compounds and methods of use thereof” (GENENTECH, INC., priority 2014, dated 2018)
pIC50: −log10 of the molar value. Where two headings read alike, the source gives them in different places.

Assays:
[1] = target: T1, hNav1.7 (Homo sapiens, UniProt Q15858); assay: Tritiated compound binding (LBA) to membranes from cells expressing hNav1.7 and the β1 subunit, competitive binding; conditions: competitive binding vs 100 pM [3H]compound, 18 h, room temperature, membranes with hNav1.7 and β1 subunit
T1 construct: expressed in transfected cells
T1 sequence (Q15858 1-1977 isoform Q15858-3): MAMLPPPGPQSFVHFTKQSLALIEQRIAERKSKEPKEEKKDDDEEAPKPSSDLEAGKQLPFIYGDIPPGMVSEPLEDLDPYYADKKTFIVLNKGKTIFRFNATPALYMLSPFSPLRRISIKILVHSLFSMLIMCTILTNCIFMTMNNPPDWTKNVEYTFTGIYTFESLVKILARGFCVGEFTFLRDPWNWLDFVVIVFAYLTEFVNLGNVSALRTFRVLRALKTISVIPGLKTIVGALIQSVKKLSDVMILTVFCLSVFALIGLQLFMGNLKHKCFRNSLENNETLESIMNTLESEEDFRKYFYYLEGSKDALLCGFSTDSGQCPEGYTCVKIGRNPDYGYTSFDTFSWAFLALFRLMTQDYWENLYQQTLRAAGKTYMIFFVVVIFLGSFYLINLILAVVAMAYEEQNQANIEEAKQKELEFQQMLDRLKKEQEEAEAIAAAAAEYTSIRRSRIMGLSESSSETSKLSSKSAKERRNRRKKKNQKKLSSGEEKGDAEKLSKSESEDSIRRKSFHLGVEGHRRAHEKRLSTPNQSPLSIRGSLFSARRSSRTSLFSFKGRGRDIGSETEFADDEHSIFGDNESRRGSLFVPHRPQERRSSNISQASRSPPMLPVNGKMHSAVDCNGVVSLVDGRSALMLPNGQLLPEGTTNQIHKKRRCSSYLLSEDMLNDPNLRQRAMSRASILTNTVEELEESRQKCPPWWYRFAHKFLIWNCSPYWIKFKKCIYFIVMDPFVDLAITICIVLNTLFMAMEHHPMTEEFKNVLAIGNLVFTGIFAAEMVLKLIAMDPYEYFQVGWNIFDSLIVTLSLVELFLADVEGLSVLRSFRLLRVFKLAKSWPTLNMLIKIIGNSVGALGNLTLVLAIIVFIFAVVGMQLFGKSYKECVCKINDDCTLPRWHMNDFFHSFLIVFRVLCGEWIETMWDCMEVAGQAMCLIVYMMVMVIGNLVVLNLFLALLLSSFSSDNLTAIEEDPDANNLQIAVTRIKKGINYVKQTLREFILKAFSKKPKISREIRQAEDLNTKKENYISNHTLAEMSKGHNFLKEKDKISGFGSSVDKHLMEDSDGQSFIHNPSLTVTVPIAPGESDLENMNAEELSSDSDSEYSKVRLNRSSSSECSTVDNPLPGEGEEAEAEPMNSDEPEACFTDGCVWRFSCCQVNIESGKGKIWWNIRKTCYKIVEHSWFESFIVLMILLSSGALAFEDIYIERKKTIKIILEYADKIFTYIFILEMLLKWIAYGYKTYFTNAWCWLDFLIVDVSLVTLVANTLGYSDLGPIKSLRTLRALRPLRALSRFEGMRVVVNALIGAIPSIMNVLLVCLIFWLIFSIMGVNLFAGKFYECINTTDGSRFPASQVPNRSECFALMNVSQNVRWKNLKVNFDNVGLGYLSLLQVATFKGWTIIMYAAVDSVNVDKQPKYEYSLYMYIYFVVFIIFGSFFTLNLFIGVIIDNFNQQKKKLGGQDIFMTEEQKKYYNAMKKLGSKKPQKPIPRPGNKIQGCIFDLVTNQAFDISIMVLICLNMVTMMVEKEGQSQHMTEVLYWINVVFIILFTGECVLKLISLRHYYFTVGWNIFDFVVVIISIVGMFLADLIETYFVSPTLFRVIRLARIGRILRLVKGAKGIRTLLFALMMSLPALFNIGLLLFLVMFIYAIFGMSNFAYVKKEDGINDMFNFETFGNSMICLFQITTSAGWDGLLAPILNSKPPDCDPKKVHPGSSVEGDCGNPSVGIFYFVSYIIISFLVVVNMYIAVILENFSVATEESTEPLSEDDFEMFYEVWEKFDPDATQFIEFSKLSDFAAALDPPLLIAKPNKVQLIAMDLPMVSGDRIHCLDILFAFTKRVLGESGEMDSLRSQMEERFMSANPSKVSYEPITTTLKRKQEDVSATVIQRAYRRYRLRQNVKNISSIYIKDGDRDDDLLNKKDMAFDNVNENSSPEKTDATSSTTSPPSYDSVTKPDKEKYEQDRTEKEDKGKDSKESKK
T1 sequence (Q07699 19-218 partner): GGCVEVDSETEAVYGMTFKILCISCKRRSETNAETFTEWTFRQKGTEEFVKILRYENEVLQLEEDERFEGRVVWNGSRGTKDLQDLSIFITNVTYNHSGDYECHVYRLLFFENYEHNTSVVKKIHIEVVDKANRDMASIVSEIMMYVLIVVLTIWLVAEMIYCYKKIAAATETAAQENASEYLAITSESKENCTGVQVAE
Method in brief: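 Competitive displacement of 100 pM [3H]compound (tritiated methyl analogue of formula (I)) from hNav1.7/β1 membranes, 18 h at room temperature in NaCl/Tris pH 7.4 buffer containing 0.01% BSA. 1 μM unlabeled compound set non-specific binding. Bound label quantified by scintillation after filtration; 4-parameter fit gave IC50.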

[2] = target: T2, NaV1.5 (Homo sapiens, UniProt Q14524); assay: Patch voltage clamp electrophysiology assay (EP), NaV1.5; assay type: cell-based; conditions: HEK-293 cells stably expressing NaV1.5 with β1 subunit, whole-cell patch clamp, membrane potential −60 mV (inactivated state)
T2 construct: permanently transfected with an expression vector containing the full-length cDNA coding for the desired human sodium channel α-subunit; expressed in transfected cells; host or cells: HEK-293
T2 sequence (Q14524 whole entry): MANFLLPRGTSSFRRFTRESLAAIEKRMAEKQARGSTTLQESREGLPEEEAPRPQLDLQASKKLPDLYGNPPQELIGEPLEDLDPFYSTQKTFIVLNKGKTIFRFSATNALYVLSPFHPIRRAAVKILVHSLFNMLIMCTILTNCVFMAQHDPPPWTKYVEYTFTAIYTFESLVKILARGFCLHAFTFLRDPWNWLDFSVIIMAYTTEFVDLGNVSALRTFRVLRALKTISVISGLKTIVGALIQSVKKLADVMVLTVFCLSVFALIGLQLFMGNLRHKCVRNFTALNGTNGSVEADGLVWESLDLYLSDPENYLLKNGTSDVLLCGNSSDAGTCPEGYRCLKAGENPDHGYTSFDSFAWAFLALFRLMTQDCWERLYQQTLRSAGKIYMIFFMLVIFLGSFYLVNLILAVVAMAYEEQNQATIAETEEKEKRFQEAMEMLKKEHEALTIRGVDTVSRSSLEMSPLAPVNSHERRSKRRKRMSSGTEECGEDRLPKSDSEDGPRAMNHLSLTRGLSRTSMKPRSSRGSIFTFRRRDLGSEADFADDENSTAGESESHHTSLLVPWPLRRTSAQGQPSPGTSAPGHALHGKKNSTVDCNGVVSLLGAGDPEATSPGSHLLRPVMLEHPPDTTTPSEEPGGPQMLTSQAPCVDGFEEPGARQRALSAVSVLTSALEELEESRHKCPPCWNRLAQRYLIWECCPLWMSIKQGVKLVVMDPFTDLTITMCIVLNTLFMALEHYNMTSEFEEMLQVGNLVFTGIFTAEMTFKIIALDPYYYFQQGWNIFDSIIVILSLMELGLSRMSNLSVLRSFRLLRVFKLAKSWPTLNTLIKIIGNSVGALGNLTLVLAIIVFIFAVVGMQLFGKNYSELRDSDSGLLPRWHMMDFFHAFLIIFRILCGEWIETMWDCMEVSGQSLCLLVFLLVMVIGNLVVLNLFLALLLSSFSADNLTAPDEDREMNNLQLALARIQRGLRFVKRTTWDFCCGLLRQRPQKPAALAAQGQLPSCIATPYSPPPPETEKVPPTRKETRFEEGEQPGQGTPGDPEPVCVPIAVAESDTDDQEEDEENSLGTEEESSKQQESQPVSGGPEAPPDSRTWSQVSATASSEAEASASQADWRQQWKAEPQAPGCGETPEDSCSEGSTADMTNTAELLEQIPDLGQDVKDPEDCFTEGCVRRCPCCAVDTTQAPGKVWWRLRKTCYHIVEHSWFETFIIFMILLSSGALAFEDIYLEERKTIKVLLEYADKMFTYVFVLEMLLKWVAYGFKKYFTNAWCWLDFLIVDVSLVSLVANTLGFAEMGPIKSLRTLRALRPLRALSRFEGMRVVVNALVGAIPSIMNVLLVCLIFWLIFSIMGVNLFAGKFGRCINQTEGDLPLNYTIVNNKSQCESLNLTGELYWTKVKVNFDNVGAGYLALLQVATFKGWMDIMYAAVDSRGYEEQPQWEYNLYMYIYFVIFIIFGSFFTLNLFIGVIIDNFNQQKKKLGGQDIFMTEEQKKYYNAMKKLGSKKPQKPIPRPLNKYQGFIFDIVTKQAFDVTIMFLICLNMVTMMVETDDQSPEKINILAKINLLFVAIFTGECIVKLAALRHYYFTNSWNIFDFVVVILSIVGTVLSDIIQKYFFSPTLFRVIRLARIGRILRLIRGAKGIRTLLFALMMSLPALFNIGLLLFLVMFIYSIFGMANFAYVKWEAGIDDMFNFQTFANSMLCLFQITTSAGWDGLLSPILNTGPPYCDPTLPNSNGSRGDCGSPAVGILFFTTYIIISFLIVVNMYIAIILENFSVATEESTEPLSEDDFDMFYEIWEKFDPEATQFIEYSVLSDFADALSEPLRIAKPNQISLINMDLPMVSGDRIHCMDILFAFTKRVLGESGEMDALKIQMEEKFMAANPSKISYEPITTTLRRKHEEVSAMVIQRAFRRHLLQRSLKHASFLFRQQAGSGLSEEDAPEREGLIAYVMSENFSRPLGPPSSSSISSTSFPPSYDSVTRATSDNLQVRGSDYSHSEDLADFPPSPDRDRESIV
Method in brief: (§1)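 Percent block is the drop in sodium current after compound wash-on, measured by a test pulse following 20 ms at −150 mV from a −60 mV inactivating holding potential.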

[3] = target: T3, human NaV1.7 (Homo sapiens, UniProt Q15858); assay: Patch voltage clamp electrophysiology assay (EP), NaV1.7; assay type: cell-based; conditions: HEK-293 cells stably expressing NaV1.7 with β1 subunit; whole-cell patch clamp, membrane potential −60 mV (inactivated state)
T3 construct: permanently transfected with an expression vector containing the full-length cDNA coding for the desired human sodium channel α-subunit; expressed in transfected cells; host or cells: HEK-293
T3 sequence (Q15858 1-1977 isoform Q15858-3): as the sequence (Q15858 1-1977 isoform Q15858-3) above
T3 sequence (Q07699 19-218 partner): as the sequence (Q07699 19-218 partner) above
Method in brief: as §1

[4] = human, HEK-293 cells stably expressing human NaV1.5 with β1 subunit, pH 7.4

Row | SMILES | pIC50 [1] | pIC50 [2, 4] | pIC50 [3] | pIC50 ([2]; read-out: Nav1.5)
1 | C[C@@]1(COc2cc(F)c(C(=O)N3CCC[C@H]3C(=O)O)cc2C2CC2)CCN(c2cc(C(F)(F)F)c(Cl)cn2)C1 [Example 136, (S)-1-(4-(((R)-1-(5-chloro-4-(trifluoromethyl)pyridin-2-yl)-3-methylpyrrolidin-3-yl)methoxy)-5-cyclopropyl-2-fluorobenzoyl)pyrrolidine-2-carboxylic acid] | 6.96 | ≤ 4.52 | 5.96 | –
2 | O=C(O)[C@@H]1CCCN1C(=O)c1cc(C2CC2)c(OC2CN(C(c3ccccc3)c3ccccc3)C2)cc1F [Example 141, (S)-1-(4-(1-benzhydrylazetidin-3-yloxy)-5-cyclopropyl-2-fluorobenzoyl)pyrrolidine-2-carboxylic acid] | 6.31 | ≤ 4.52 | 5.21 | –
3 | C[C@@H]1SCN(C(=O)c2cc(C3CC3)c(OCC34CC5CC(CC(C5)C3)C4)cc2F)[C@@H]1C(=O)O [Example 142a, (4R,5S)-3-[4-(1-adamantylmethoxy)-5-cyclopropyl-2-fluoro-benzoyl]-5-methyl-thiazolidine-4-carboxylic acid] | 6.60 | – | 5.82 | 4.77
4 | C[C@@H]1SCN(C(=O)c2cc(C3CC3)c(OCC34CC5CC(CC(C5)C3)C4)cc2F)[C@H]1C(=O)O [Example 142b, (4S,5S)-3-[4-(1-adamantylmethoxy)-5-cyclopropyl-2-fluoro-benzoyl]-5-methyl-thiazolidine-4-carboxylic acid] | 6.12 | – | 5.52 | 4.82
5 | O=C(O)[C@@H]1CS(=O)(=O)CN1C(=O)c1cc(C2CC2)c(OCC23CC4CC(CC(C4)C2)C3)cc1F [Example 143, (4R)-3-[4-(1-adamantylmethoxy)-5-cyclopropyl-2-fluoro-benzoyl]-1,1-dioxo-1,3-thiazolidine-4-carboxylic acid] | 6.77 | – | 5.92 | 4.68
6 | N#C[C@H]1C[C@@H](C(=O)O)N(C(=O)c2cc(C3CC3)c(OCC34CC5CC(CC(C5)C3)C4)cc2F)C1 [Example 144, (2S,4S)-1-[4-(1-adamantylmethoxy)-5-cyclopropyl-2-fluoro-benzoyl]-4-cyano-pyrrolidine-2-carboxylic acid] | 6.06 | ≤ 4.52 | 5.46 | –
7 | O=C(O)[C@@H]1CC(F)(F)CN1C(=O)c1cc(C2CC2)c(OCC23CC4CC(CC(C4)C2)C3)cc1F [Example 145, (2S)-1-[4-(1-adamantylmethoxy)-5-cyclopropyl-2-fluoro-benzoyl]-4,4-difluoro-pyrrolidine-2-carboxylic acid] | 7.46 | – | 6.19 | 4.80
8 | O=C(O)[C@@H]1[C@H]2CC[C@H](C2)N1C(=O)c1cc(C2CC2)c(OCC23CC4CC(CC(C4)C2)C3)cc1F [Example 146, (1S,2S,4R)-3-[4-(1-adamantylmethoxy)-5-cyclopropyl-2-fluoro-benzoyl]-3-azabicyclo[2.2.1]heptane-2-carboxylic acid] | 6.74 | – | 5.82 | 5.08
9 | CC1(C)CCC(C(=O)O)N1C(=O)c1cc(C2CC2)c(OCC23CC4CC(CC(C4)C2)C3)cc1F (stereo not drawn) [Example 147, 1-[4-(1-adamantylmethoxy)-5-cyclopropyl-2-fluoro-benzoyl]-5,5-dimethyl-pyrrolidine-2-carboxylic acid] | 6.59 | – | 5.68 | 4.85
10 | C[C@H]1C[C@@H](C(=O)O)N(C(=O)c2cc(C3CC3)c(OCC34CC5CC(CC(C5)C3)C4)cc2F)C1 [Example 148, (2S,4S)-1-[4-(1-adamantylmethoxy)-5-cyclopropyl-2-fluoro-benzoyl]-4-methyl-pyrrolidine-2-carboxylic acid] | 7.31 | – | 6.21 | 4.77
11 | C[C@H]1CCN(C(=O)c2cc(C3CC3)c(OCC34CC5CC(CC(C5)C3)C4)cc2F)[C@@H]1C(=O)O [Example 149, (2S,3S)-1-[4-(1-adamantylmethoxy)-5-cyclopropyl-2-fluoro-benzoyl]-3-methyl-pyrrolidine-2-carboxylic acid] | 8.00 | – | 6.52 | 4.77
12 | C[C@@H]1C[C@@H](C(=O)O)N(C(=O)c2cc(C3CC3)c(OCC34CC5CC(CC(C5)C3)C4)cc2F)C1 [Example 150, (2S,4R)-1-[4-(1-adamantylmethoxy)-5-cyclopropyl-2-fluoro-benzoyl]-4-methyl-pyrrolidine-2-carboxylic acid] | 7.07 | – | 5.92 | 4.72
13 | CC1(C)SCN(C(=O)c2cc(C3CC3)c(OCC34CC5CC(CC(C5)C3)C4)cc2F)[C@@H]1C(=O)O [Example 155, (4R)-3-[4-(1-adamantylmethoxy)-5-cyclopropyl-2-fluoro-benzoyl]-5,5-dimethyl-thiazolidine-4-carboxylic acid] | 7.17 | – | 6.05 | 5.03
14 | C[C@@H](c1cc(Cl)cc(Cl)c1)N1CCC(COc2cc(F)c(C(=O)N3[C@@H]4C[C@@H]4C[C@H]3C(=O)O)cc2C2CC2)CC1 [Example 156, (1R,3S,5R)-4-[5-cyclopropyl-4-[[1-[(1S)-1-(3,5-dichlorophenyl)ethyl]-4-piperidyl]methoxy]-2-fluoro-benzoyl]-4-azabicyclo[3.1.0]hexane-3-carboxylic acid] | 6.08 | – | 5.51 | 4.77
15 | C[C@@H](c1cc(Cl)cc(Cl)c1)N1CCC(COc2cc(F)c(C(=O)N3CSC[C@H]3C(=O)O)cc2C2CC2)CC1 [Example 159, (4R)-3-[5-cyclopropyl-4-[[1-[(1S)-1-(3,5-dichlorophenyl)ethyl]-4-piperidyl]methoxy]-2-fluoro-benzoyl]thiazolidine-4-carboxylic acid] | 7.10 | – | 6.00 | 4.77
16 | O=C(O)[C@@H]1CC(F)(F)CN1C(=O)c1cc(C2CC2)c(OCC23CC4CC(CC(C4)C2)C3)cc1F [Example 160, (2S)-1-[4-(1-adamantylmethoxy)-5-cyclopropyl-2-fluoro-benzoyl]-4,4-difluoro-pyrrolidine-2-carboxylic acid] | 7.46 | – | 6.19 | 4.80
17 | O=C(O)[C@@H]1C[C@H](O)CN1C(=O)c1cc(C2CC2)c(OCC23CC4CC(CC(C4)C2)C3)cc1F [Example 161, (2S,4S)-1-[4-(1-adamantylmethoxy)-5-cyclopropyl-2-fluoro-benzoyl]-4-hydroxy-pyrrolidine-2-carboxylic acid] | 6.41 | ≤ 4.52 | 6.01 | –
18 | C[C@H]1OCN(C(=O)c2cc(C3CC3)c(OCC34CC5CC(CC(C5)C3)C4)cc2F)[C@@H]1C(=O)O [Example 162, (4S,5R)-3-[4-(1-adamantylmethoxy)-5-cyclopropyl-2-fluoro-benzoyl]-5-methyl-oxazolidine-4-carboxylic acid] | 8.14 | – | 7.03 | 5.24
19 | C[C@@H]1OCN(C(=O)c2cc(C3CC3)c(OCC34CC5CC(CC(C5)C3)C4)cc2F)[C@H]1C(=O)O [Example 163, (4R,5S)-3-[4-(1-adamantylmethoxy)-5-cyclopropyl-2-fluoro-benzoyl]-5-methyl-oxazolidine-4-carboxylic acid] | 6.92 | – | 6.09 | 5.33
20 | C[C@H]1OCN(C(=O)c2cc(C3CC3)c(OCC3CCN([C@@H](C)c4cc(Cl)cc(Cl)c4)CC3)cc2F)[C@@H]1C(=O)O [Example 164, (4S,5R)-3-[5-cyclopropyl-4-[[1-[(1S)-1-(3,5-dichlorophenyl)ethyl]-4-piperidyl]methoxy]-2-fluoro-benzoyl]-5-methyl-oxazolidine-4-carboxylic acid] | 7.60 | – | 7.21 | 4.89
21 | CC1O[C@H](C)[C@@H](C(=O)O)N1C(=O)c1cc(C2CC2)c(OCC23CC4CC(CC(C4)C2)C3)cc1F (stereo partly drawn) [Example 166, (4S,5R)-3-[4-(1-adamantylmethoxy)-5-cyclopropyl-2-fluoro-benzoyl]-2,5-dimethyl-oxazolidine-4-carboxylic acid] | 7.05 | – | 6.12 | 4.89
22 | O=C(O)C1=CCCN1C(=O)c1cc(C2CC2)c(OCC23CC4CC(CC(C4)C2)C3)cc1F [Example 167, 1-[4-(1-adamantylmethoxy)-5-cyclopropyl-2-fluoro-benzoyl]-2,3-dihydropyrrole-5-carboxylic acid] | 6.72 | – | 6.18 | 4.55
23 | CC[C@H]1CCN(C(=O)c2cc(C3CC3)c(OCC34CC5CC(CC(C5)C3)C4)cc2F)[C@@H]1C(=O)O [Example 168a, (2S,3S)-1-[4-(1-adamantylmethoxy)-5-cyclopropyl-2-fluoro-benzoyl]-3-ethyl-pyrrolidine-2-carboxylic acid] | 6.21 | – | 5.48 | 5.17
24 | CC[C@@H]1CCN(C(=O)c2cc(C3CC3)c(OCC34CC5CC(CC(C5)C3)C4)cc2F)[C@H]1C(=O)O [Example 168b, (2R,3R)-1-[4-(1-adamantylmethoxy)-5-cyclopropyl-2-fluoro-benzoyl]-3-ethyl-pyrrolidine-2-carboxylic acid] | 6.74 | – | 5.89 | 5.09
